In US12077503B2, “Substituted cyclic amides and their use as herbicides” (FMC CORPORATION, priority 2015, dated 2024):

Assays:
Format in all cases: in vivo
Kochia (Kochia scoparia) [1] = experiment: Test A preemergence; settings: Preemergence; for Plant response rating, Kochia: 125 g ai/ha, visual injury after approximately 10 d, 0 to 100 scale where 0 is no effect and 100 is complete control; for Kochia plant response rating (0 to 100 scale, 0 is no effect, 100 is complete control): 500 g ai/ha, visual injury approx. 10 d
Method in brief: (§1)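 Preemergence directed soil spray on seeded pots, or postemergence application to plants 2–10 cm, one- to two-leaf. Solvent mixture non-phytotoxic, with surfactant. Scored ~10 d later, visually, 0–100 vs untreated.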

[2] = test system: barnyardgrass (Echinochloa crus-galli); experiment: Test A preemergence; settings: Preemergence; for Plant response rating, Barnyardgrass: 125 g ai/ha, visual injury after approximately 10 d, 0 to 100 scale where 0 is no effect and 100 is complete control; for Barnyardgrass plant response rating (0 to 100 scale, 0 is no effect, 100 is complete control): 500 g ai/ha, visual injury approx. 10 d
Method in brief: as §1

[3] = test system: giant foxtail (Setaria faberii); experiment: Test A preemergence; settings: Preemergence; for Plant response rating, Foxtail, Giant: 125 g ai/ha, visual injury after approximately 10 d, 0 to 100 scale where 0 is no effect and 100 is complete control; for Foxtail, Giant plant response rating (0 to 100 scale, 0 is no effect, 100 is complete control): 500 g ai/ha, visual injury approx. 10 d
Method in brief: as §1

[4] = test system: pigweed (Amaranthus retroflexus); experiment: Test A preemergence; settings: Preemergence; for Plant response rating, Pigweed: 125 g ai/ha, visual injury after approximately 10 d, 0 to 100 scale where 0 is no effect and 100 is complete control; for Pigweed plant response rating (0 to 100 scale, 0 is no effect, 100 is complete control): 500 g ai/ha, visual injury approx. 10 d
[5] = test system: ragweed (common ragweed, Ambrosia elatior); experiment: Test A preemergence; settings: Preemergence; for Plant response rating, Ragweed: 125 g ai/ha, visual injury after approximately 10 d, 0 to 100 scale where 0 is no effect and 100 is complete control; for Ragweed plant response rating (0 to 100 scale, 0 is no effect, 100 is complete control): 500 g ai/ha, visual injury approx. 10 d
Method in brief: as §1

[6] = test system: ryegrass, Italian (Italian ryegrass, Lolium multiflorum); experiment: Test A preemergence; settings: Preemergence; for Plant response rating, Ryegrass, Italian: 125 g ai/ha, visual injury after approximately 10 d, 0 to 100 scale where 0 is no effect and 100 is complete control; for Ryegrass, Italian plant response rating (0 to 100 scale, 0 is no effect, 100 is complete control): 500 g ai/ha, visual injury approx. 10 d
Method in brief: as §1

[7] = test system: Galium (catchweed bedstraw, Galium aparine); experiment: Test A postemergence
Method in brief: as §1

Kochia (Kochia scoparia) [8] = experiment: Test A postemergence
Method in brief: as §1

[9] = test system: barnyardgrass (Echinochloa crus-galli); experiment: Test A postemergence
Method in brief: as §1

[10] = test system: blackgrass (Alopecurus myosuroides); experiment: Test A postemergence
Method in brief: as §1

corn (Zea mays) = experiment: Test A postemergence
Method in brief: as §1

[11] = test system: giant foxtail (Setaria faberii); experiment: Test A postemergence
Method in brief: as §1

[12] = test system: pigweed (Amaranthus retroflexus); experiment: Test A postemergence
Method in brief: as §1

[13] = test system: ragweed (common ragweed, Ambrosia elatior); experiment: Test A postemergence
Method in brief: as §1

[14] = test system: ryegrass, Italian (Italian ryegrass, Lolium multiflorum); experiment: Test A postemergence
Method in brief: as §1

[15] = test system: wheat (Triticum aestivum); experiment: Test A postemergence
Method in brief: as §1

[16] = test system: barnyardgrass (Echinochloa crus-galli); experiment: Test B flooded paddy test; settings: Flood, 250 g ai/ha; 0 to 100 scale where 0 is no effect and 100 is complete control; 13 to 15 d
Method in brief: (§2)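 2-leaf plants; pots flooded 3 cm over soil; cpd added to paddy water; depth held; greenhouse 13–15 d; visual rating vs controls, 0 = no effect, 100 = complete control.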

[17] = test system: ducksalad (Heteranthera limosa); experiment: Test B flooded paddy test; settings: Flood, 250 g ai/ha; 0 to 100 scale where 0 is no effect and 100 is complete control; 13 to 15 d
Method in brief: as §2

rice (Oryra sativa) = experiment: Test B flooded paddy test; settings: Flood, 250 g ai/ha; 0 to 100 scale where 0 is no effect and 100 is complete control; 13 to 15 d
Method in brief: as §2

[18] = test system: sedge, umbrella (small-flower umbrella sedge, Cyperus difformis); experiment: Test B flooded paddy test; settings: Flood, 250 g ai/ha; 0 to 100 scale where 0 is no effect and 100 is complete control; 13 to 15 d
Method in brief: as §2

[19] = 125 g ai/ha, postemergence, visual injury rating on 0 to 100 scale (0 no effect, 100 complete control), approx. 10 d
[20] = Postemergence, 500 g ai/ha, 0 to 100 scale where 0 is no effect and 100 is complete control
[21] = 125 g ai/ha, postemergence, visual rating after approx. 10 d, 0 to 100 scale (0 no effect, 100 complete control)

Row | SMILES | Plant response rating, Kochia (Kochia (Kochia scoparia) [1]) | Kochia plant response rating (0 to 100 scale, 0 is no effect, 100 is complete control) (Kochia (Kochia scoparia) [1]) | Plant response rating, Barnyardgrass [2] | Barnyardgrass plant response rating (0 to 100 scale, 0 is no effect, 100 is complete control) [2] | Plant response rating, Foxtail, Giant [3] | Foxtail, Giant plant response rating (0 to 100 scale, 0 is no effect, 100 is complete control) [3] | Plant response rating, Pigweed [4] | Pigweed plant response rating (0 to 100 scale, 0 is no effect, 100 is complete control) [4] | Plant response rating, Ragweed [5] | Ragweed plant response rating (0 to 100 scale, 0 is no effect, 100 is complete control) [5] | Plant response rating, Ryegrass, Italian [6] | Ryegrass, Italian plant response rating (0 to 100 scale, 0 is no effect, 100 is complete control) [6] | Plant response rating, Galium [7, 20] | Plant response rating, Kochia (Kochia (Kochia scoparia) [8]; [20]) | Plant response rating, Barnyardgrass [9, 20] | Plant response rating, Blackgrass [10, 20] | Plant response rating, Corn (corn (Zea mays); [20]) | Plant response rating, Foxtail, Giant [11, 20] | Plant response rating, Pigweed [12, 20] | Plant response rating, Ragweed [13, 20] | also measured
1 | O=C1NCC(c2cc(F)cc(C(F)(F)F)c2)C1C(=O)Nc1ccccc1F (stereo not drawn) [Compound 489] | 20 | 50 | 90 | 90 | 90 | 90 | 0 | 40 | 30 | 30 | 30 | 20 | 40 | 40 | 90 | 70 | 80 | 90 | 20 | 30 | Galium plant response rating [7, 19]: 0; Kochia plant response rating (Kochia (Kochia scoparia) [8]; [19]): 0; Barnyardgrass plant response rating [9, 19]: 90; Blackgrass plant response rating [10, 19]: 50; Corn plant response rating (corn (Zea mays); [19]): 70; Foxtail, Giant plant response rating [11, 19]: 90; Pigweed plant response rating [12, 19]: 0; Ragweed plant response rating [13, 19]: 0; Ryegrass, Italian plant response rating [14, 19]: 30; Plant response rating, Ryegrass, Italian [14, 20]: 50; Wheat plant response rating [15, 19]: 30; Plant response rating, Wheat [15, 20]: 70; Plant response rating, Barnyardgrass [16]: 65; Plant response rating, Ducksalad [17]: 100; Plant response rating, Rice (rice (Oryra sativa)): 20; Plant response rating, Sedge, Umbrella [18]: 0
2 | C=CCN1CC(c2cccc(C(F)(F)F)c2)C(C(=O)Nc2ccccc2F)C1=O (stereo not drawn) [Compound 605] | 0 | 0 | 30 | 70 | 90 | 90 | 0 | 0 | 0 | 0 | 0 | 20 | 0 | 0 | 80 | 20 | 0 | 80 | 0 | 0 | Plant response rating, Galium [7, 21]: 0; Plant response rating, Kochia (Kochia (Kochia scoparia) [8]; [21]): 0; Plant response rating, Barnyardgrass [9, 21]: 0; Plant response rating, Blackgrass [10, 21]: 0; Plant response rating, Corn (corn (Zea mays); [21]): 0; Plant response rating, Foxtail, Giant [11, 21]: 20; Plant response rating, Pigweed [12, 21]: 0; Plant response rating, Ragweed [13, 21]: 0; Plant response rating, Ryegrass, Italian [14, 21]: 0; Plant response rating, Ryegrass, Italian [14, 20]: 0; Plant response rating, Wheat [15, 21]: 0; Plant response rating, Wheat [15, 20]: 30; Plant response rating, Barnyardgrass [16]: 0; Plant response rating, Ducksalad [17]: 50; Plant response rating, Rice (rice (Oryra sativa)): 0; Plant response rating, Sedge, Umbrella [18]: 0
3 | O=C1NCC(c2cc(Cl)sc2Cl)C1C(=O)Nc1cccc(F)c1F (stereo not drawn) [Compound 601] | 0 | 0 | 60 | 80 | 70 | 80 | 0 | 0 | 0 | 0 | 0 | 0 | 0 | 0 | 70 | 0 | 20 | 50 | 0 | 0 | Plant response rating, Galium [7, 21]: 0; Plant response rating, Kochia (Kochia (Kochia scoparia) [8]; [21]): 0; Plant response rating, Barnyardgrass [9, 21]: 20; Plant response rating, Blackgrass [10, 21]: 0; Plant response rating, Corn (corn (Zea mays); [21]): 0; Plant response rating, Foxtail, Giant [11, 21]: 20; Plant response rating, Pigweed [12, 21]: 0; Plant response rating, Ragweed [13, 21]: 0; Plant response rating, Ryegrass, Italian [14, 21]: 0; Plant response rating, Ryegrass, Italian [14, 20]: 0; Plant response rating, Wheat [15, 21]: 0; Plant response rating, Wheat [15, 20]: 20; Plant response rating, Barnyardgrass [16]: 40; Plant response rating, Ducksalad [17]: 75; Plant response rating, Rice (rice (Oryra sativa)): 0; Plant response rating, Sedge, Umbrella [18]: 0
